Data on one compound can be found in patent publication US12084411B2, “Hinokitiol analogues, methods of preparing and pharmaceutical compositions thereof” (The Board of Trustees of the University of Illinois, priority 2018, dated 2024).

The data set in a line: Electrochemical studies (cyclic voltammetry) of iron:chelator complexes. It is filed as physicochemical. The method, then:
Potentiostatic electrochemical methods were performed on a CH Instruments electrochemical workstation (model 760 C, Austin, TX) on a three-electrode cell. Hg working electrodes were fabricated by the electrodeposition of Hg on a Pt wire utilizing the procedure previously described by Barton et al. (70). All experiments were reported versus a Ag/AgCl reference electrode and utilized a graphite auxiliary electrode. The electrolyte was sparged with UHP argon before measurements. A positive pressure of argon was maintained throughout the experiments.
Unless otherwise indicated, experiments used a 0.1 M Tris buffer in H2O or 1:1 MeOH:H2O at pH=7.2 using HNO3 and KOH as titrant. Unless otherwise indicated, experiments used a 100 mV/s scan rate, 100 μM Fe(NO3)3, and 500 μM small molecule. All redox potentials are recorded versus a normal hydrogen electrode (NHE).
The estimated redox potential of Fe(Hino)n was determined through extrapolation of the best-fit line of the determined redox potentials of Fe(Hino)n as a function of the concentration of MeOH in the 0.1 M Tris buffer at pH=7.2.

Take `CC(C)c1cccc(=O)c(O)c1` [hinokitiol]: the “E^0 1:1 MeOH:H2O” value (Table 2, 0.1 M Tris, pH 7.2) was −211 mV vs. N.H.E. Also, the “E^0 Aqueous, estimated from MeOH standard curve” value (extrapolation of E^01 vs. MeOH concentration) is listed as −361^¶ mV vs. N.H.E.
